This note sets out measurements from US12663426B2, “Method and composition for measurement of nitric oxide” (The University of Chicago, priority 2019, dated 2026).

Assay type in all cases: cell-based
Assay [1] relates to T-47D cells. Description: Golgi fragmentation (Giantin/GM130 immunofluorescence). The procedure:
(§1) Immunofluorescence staining. Cells were cultured on a glass bottom 3.5 cm imaging dish to reach 60% confluency. […] Treated cells were then washed three times with 1× PBS (pH 7.4) and fixed using, 4% paraformaldehyde at room temperature (RT, 15 min). Subsequently, cells were permeabilized using 0.25% triton X-100 followed by blocking using 3% BSA in 1× PBS. Cells were then incubated with indicated primary antibodies—mouse monoclonal anti-eNOS antibody (SantaCruz Cat #sc-376751), Polyclonal Anti-S-nitrosocysteine antibody (Abeam Cat #ab94930 or Abeam Cat #ab50185), Rabbit polyclonal Anti-Giantin antibody (Abeam Cat #ab24586) or Mouse monoclonal Anti-GM130 antibody (BD Biosciences Cat #610822) in blocking buffer (3% BSA in 1× 4 PBS) for 1 hour at RT. Cells were then washed for 5 min with 1× PBS (3×). Respective secondary antibodies conjugated with either Alexafluor 488 or Alexafluor 647 were added to the cells and incubated for 1 hr at RT. Cells were washed again to remove excess secondary antibody using 1× PBS for 5 min (3×). Hoechst 33342 (5 μM) was added 10 min prior to imaging to stain nuclear DNA. Cells were then imaged on a Leica SP8 laser scanning confocal microscope using excitation wavelengths 405 nm (Hoechst), 488 nm (AlexaFluor 488) and 647 nm (AlexaFluor 647). Images were processed using Fiji and maximum z-projection of 2-3 z-planes are used in representative images.
Golgi fragmentation was quantified with immunofluorescence images of Golgi structural protein Giantin. Merge images of Hoechst and Giantin allowed identification of cell numbers and enumeration of Golgi fragments per cell (≤3 Golgi fragments per cell was considered intact Golgi) (Lee, J. E. et al. Dependence of Golgi apparatus integrity on nitric oxide in vascular cells: implications in pulmonary arterial hypertension. Am. J. Physiol. Heart Circ. Physiol. 300, H1141-58 (2011)). […]
Small molecule inhibitors were then screened to identify the molecular pathway by which NOS3 inhibition induces Golgi fragmentation. This is based on the rationale that inhibiting a protein on this pathway should also block methylene blue-induced Golgi fragmentation. […] A range of small molecule inhibitors against kinases that have previously ascribed roles in Golgi fragmentation were then used. DNA-PK with NU7441 was ruled out (Farber-Katz, S. E. et al. DNA damage triggers Golgi dispersal via DNA-PK and GOLPH3. Cell 156, 413-427 (2014)). Compounds containing an indirubin core have broad specificity for Cyclin dependent kinases (CDKs) and Src kinases. […] CDK1, CDK2 and CDK5 were ruled out, using (R)-Roscovitine (Rosco).

The target of assay [2] is T1, NOS3 (Homo sapiens, UniProt P29474).
T1 construct: endogenous, basal NOS3 activity was estimated at each of these sub-cellular locations in T-47D cells; endogenous in cells; host or cells: T-47D cells
Description: Steady state NOS3 activity imaging at plasma membrane and TGN with NOckout probes. The settings on record: T-47D cells.
Description: Image acquisition. T-47D cells were maintained as mentioned above in the cell culture section. Cells were washed twice with Hank's balanced salt solution (HBSS) before incubating them with 500 nM NOckout^TGN for 30 min or 500 nM NOckout^PM for 10 min at 37° C. followed by 3 washes with HBSS solution to remove any unloaded sensors. For steady state imaging (FIG. 1), cells were treated with indicated agonists or antagonists for 1 hr in complete RPMI-1640 medium. Care was taken not to exceed the final concentration of DMSO>1% at any time of the experiment. Additionally, 1% DMSO was used as a negative control in untreated (Basal) cells. […] The cells are then washed and imaged (FIG. 1f).
For simultaneous imaging cells were treated with 500 nM NOckout^TGN for 30 min where last 10 min cells were co-incubated with 500 nM NOckout^PM. In order to achieve lowest signal (PTIO, FIG. 1e-f) or to achieve bleaching profile (PTIO, FIG. 3e) cells were pre-treated with 500 μM PTIO for 15 minutes. Images were captured on a Laser scanning confocal Leica SP8 microscope using 63×, 1.4UV NA objective. Desired excitation and emission wavelengths was achieved using white light laser along with notch filters and acousto-optical tunable filters. A488, DAR and A647 were imaged using the following settings—Alexa488 (λex=488 nm, λem=500 nm to 540 nm), DAR (λex=554 nm, λem=565 nm to 610 nm) and Alexa647 (λex=647 nm, λem=665 nm to 710 nm).
Image analysis was performed using Fiji (Schindelin, J. et al. Fiji: an open-source platform for biological-image analysis. Nat Methods 9, 676-682 (2012)). Auto-fluorescence was subtracted from images for ratiometric analysis. For representation, images were further processed by smooth and despeckle functions. In order to present G/B or G/R images, a mask for each image was constructed using Otsu thresholding method, and mask-multiplied images were used for division. The ROI plugin in Fiji was used to select either TGN (Alexa647 channel) or PM (Alexa488 channel) and these ROIs were recalled in DAR channel to measure intensity in all three channels.
Next, endogenous, basal NOS3 activity was estimated at each of these sub-cellular locations in T-47D cells without explicitly activating NOS3. To do this, the ratiometric NOckout^PM response, i.e. the G/B ratio, was first measured under conditions where cells were depleted of NO using the NO scavenger 2-phenyl-4,4,5,5-tetramethylimidazoline-1-oxyl 3-oxide (PTIO, 300 μM) (Goldstein, S., Russo, A. & Samuni, A. Reactions of PTIO and carboxy-PTIO with *NO, *NO2, and O2−*. J Biol. Chem. 278, 50949-50955 (2003)). […] These two extreme cases provide the minimum and maximum G/B signals afforded by NOckout^PM in the cell (FIG. 1e-f). The G/B values under any subsequent condition are normalized to the maximum G/B signal. […]

Assay [3] concerns S-nitrosylation at the Golgi. Description: Anti-S-nitrosocysteine immunostaining of T-47D cells. The procedure:
as §1
In order to address the significance of the […] population of NOS3 at the TGN, T-47D cells were immunostained using an antibody specific to S-nitrosocysteine.
Similar observations were made in MCF-7 cells upon NO depletion (FIG. 23). These studies reveal that the Golgi is a cellular hot-spot for 5-nitrosylation of proteins by NOS3, where it is essential for the maintenance of Golgi architecture in breast cancer cells. […] In addition to Golgi fragmentation, NO scavenging also hampered cell growth by inducing cell sensescence (FIG. 24).

For assay [4], the target named is T2, murine TLR-9 (Mus musculus, UniProt Q9EQU3).
T2 construct: endogenous in cells; host or cells: primary microglia from C57BL/6 mice
T2 sequence (Q9EQU3 26-1032): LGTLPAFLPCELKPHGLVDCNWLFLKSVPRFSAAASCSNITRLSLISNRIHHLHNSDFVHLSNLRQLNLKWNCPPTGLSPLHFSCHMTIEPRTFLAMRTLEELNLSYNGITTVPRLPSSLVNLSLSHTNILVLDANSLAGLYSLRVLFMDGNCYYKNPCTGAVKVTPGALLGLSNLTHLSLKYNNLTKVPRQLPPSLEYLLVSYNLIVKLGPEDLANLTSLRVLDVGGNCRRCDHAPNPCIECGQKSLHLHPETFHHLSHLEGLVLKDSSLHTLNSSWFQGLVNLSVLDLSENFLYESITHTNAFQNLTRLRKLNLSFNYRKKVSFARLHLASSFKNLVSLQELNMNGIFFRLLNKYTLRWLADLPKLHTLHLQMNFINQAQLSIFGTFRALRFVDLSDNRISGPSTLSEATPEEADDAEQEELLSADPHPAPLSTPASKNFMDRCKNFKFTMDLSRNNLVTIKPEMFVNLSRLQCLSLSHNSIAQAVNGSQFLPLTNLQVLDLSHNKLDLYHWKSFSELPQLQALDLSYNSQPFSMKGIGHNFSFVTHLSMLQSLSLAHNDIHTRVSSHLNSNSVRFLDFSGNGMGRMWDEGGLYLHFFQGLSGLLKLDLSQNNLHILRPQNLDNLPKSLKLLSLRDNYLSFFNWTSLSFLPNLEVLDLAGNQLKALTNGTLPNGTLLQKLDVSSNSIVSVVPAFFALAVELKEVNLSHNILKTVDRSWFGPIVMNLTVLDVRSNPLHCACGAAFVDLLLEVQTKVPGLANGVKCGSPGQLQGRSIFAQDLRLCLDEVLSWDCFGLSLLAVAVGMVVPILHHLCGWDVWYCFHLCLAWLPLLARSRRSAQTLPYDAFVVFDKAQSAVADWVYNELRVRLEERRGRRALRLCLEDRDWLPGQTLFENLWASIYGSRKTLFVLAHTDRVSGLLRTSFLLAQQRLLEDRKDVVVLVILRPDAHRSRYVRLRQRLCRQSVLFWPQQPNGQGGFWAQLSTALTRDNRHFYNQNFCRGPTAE
Description: Endosomal NO in primary mouse microglia with NOckout^mCpG. The settings on record: primary microglial cells, NOckout^mCpG 500 nM 120 min, without or with 200 nM BAF. The text has this:
Image analysis: A MATLAB based program called Findosome was used to calculate the (G/R) values of individual endosomes from the acquired images. Maximum Z-projected images created using Fiji (NIH) were fed to Findosome to pick endosomal compartments as ROI corresponding to individual endosomes based on the A647 channel intensity. For each ROI, the program calculates fluorescence intensities both in the normalizing channel (A647, R) as well as in the DAR (G) channel. The results were exported as an excel file. From the results, (G/R) value for individual endosomes can be calculated. Phagosomal (G/R) values from the zebrafish microglia are calculated using Fiji software. Images were imported to Fiji and maximum Z-projected images were created. ROI were manually drawn around clearly identifiable phagosomes using the normalizing channel A647 intensity. Fluorescence intensities in A647 and DAR channels were calculated. G/R values are either represented as heat map images using Fiji or as bar graph using Origin software. Intracellular measurements of (G/R) values was performed in GFP colocalized microglia. For (G/R) ratio quantification experiments, only those vesicles that are present in both green (G) and red (R) channels were considered. […]

Turning to `O=c1cc(N2CCOCC2)oc2c(-c3cccc4c3sc3ccccc34)cccc12` [NU7441], the “effect on methylene blue (MB)-induced Golgi fragmentation” value (“effect on methylene blue” for short) in assay [1] is given as “ruled out”. Turning to `O=C1Nc2ccccc2/C1=C1/Nc2ccccc2/C1=N\OCC(O)CO` (stereo not drawn) [indirubin-e804], the “effect on methylene blue” value in assay [1] was “completely blocked”. For `COC(=O)[C@@H](N)CCCNC(=N)N[N+](=O)[O-]` [L-NAME, L-N^G-Nitroarginine methyl ester], in assay [2], the “G/B and G/R values of NOckout probes (NOS3 activity)” value (shortened to “G/B and G/R values of NOckout probes”) was “reflected those of PTIO-treated cells”. The “S-nitrosylation at the Golgi” value in assay [3] is listed as “dramatically reduced”. Besides, in assay [1], the “Golgi fragmentation by treatment alone” value was “underwent fragmentation”. Regarding `CN(C)c1ccc2nc3ccc(=[N+](C)C)cc-3sc2c1` [Methylene Blue], the “Golgi fragmentation by treatment alone” value in assay [1] was “fragmented morphology”. The same measure, in the same setting: next, `CC1(C)CC(O)CC(C)(C)N1[O]` [TEMPOL]: “none of these treatments fragmented the Golgi”. As for `CN(C)S(=O)(=O)c1ccc2c(c1)/C(=C/c1cc3c([nH]1)CCCC3)C(=O)N2` [SU6656], in assay [1], the “reduction of MB-induced Golgi fragmentation” value is listed as about 50%.

As to `Nc1ncnc2c1ncn2[C@@H]1O[C@H](COP(=O)(O)OP(=O)(O)OP(=O)(O)O)[C@@H](O)[C@H]1O` [ATP], the “G/B and G/R values of NOckout probes” value in assay [2] is “significantly higher G/B and G/R ratios”. Consider Hemoglobin, for which the “Golgi fragmentation by treatment alone” value in assay [1] was “fragmented morphology”. As for `CC1(C)N([O])C(c2ccccc2)=[N+]([O-])C1(C)C` [PTIO, 2-phenyl-4,4,5,5-tetramethylimidazoline-1-oxyl 3-oxide], the “S-nitrosylation at the Golgi” value in assay [3] is recorded as “greatly diminished”. Moreover, in assay [1], the “Golgi fragmentation by treatment alone” value was “fragmented morphology”. Regarding `O=C1Nc2ccccc2/C1=C1/Nc2ccccc2/C1=N\O` [indirubin-3′-monoxime], the “effect on methylene blue” value in assay [1] is on record as “completely blocked”.

On to `C[C@@H](N)[C@H]1CC[C@H](C(=O)Nc2ccncc2)CC1` [Y-27632], for which the “effect on methylene blue” value in assay [1] was “not mediated by apoptosis”. For the compound `C[C@]12CC[C@@H]3c4ccc(O)cc4CC[C@H]3[C@@H]1CC[C@@H]2O` [E2, 17 β-Estradiol], in assay [2], the “G/B and G/R values of NOckout probes” value was “selectively activated NOS3 only at the plasma membrane”.

As to `CO/C1=C\C(C)=C\[C@@H](C)[C@@H](O)[C@@H](C)C/C(C)=C/C=C/[C@H](OC)[C@@H]([C@@H](C)[C@@H](O)[C@H](C)[C@@]2(O)C[C@@H](O)[C@H](C)[C@@H](C(C)C)O2)OC1=O` [BAF], the “endosomes with G/R value≥0.45” value in assay [4] is 50%. With `C/C1=C/C(=O)O[C@@H]2C[C@@H](CC[C@H](C)/C=C\CC1)O[C@@](O)([C@@H]1CSC(=O)N1)C2` [Latrunculin B], the “effect on methylene blue” value in assay [1] is listed as “completely blocked”. Same read-out and setting: in the case of `CC[C@H](CO)Nc1nc(NCc2ccccc2)c2ncn(C(C)C)c2n1` [(R)-Roscovitine] it was “ruled out”.
